Test results reported in US12396987B2, “Pharmaceutical composition with excellent storage stability” (ISHIHARA SANGYO KAISHA, LTD., priority 2018, dated 2025).
“Also recorded” adds a separate entry of the source. Counter-ions that a name gives are not always drawn.

Experiments:
[1] = Forced decomposition test of compound 1 (heat, acid, base, oxidation, light; HPLC-PDA); type: physicochemical
Method: A forced decomposition test of the compound 1 was performed under stress conditions of heat, acid, base, oxidation and light. A compound 1-containing solution was stored under the conditions shown in Table 4 below, and then the concentrations of the compound 1 and the decomposition products in the solution were measured using a high performance liquid chromatography-photodiode array detector (HPLC-PDA system). An incubator was used for heating, and a light resistance tester was used for irradiation with pseudo-sunlight in a photodecomposition test. The content of the compound 1 in the compound 1-containing solution produced was measured by the HPLC-PDA system, and the value thereof was regarded as the initial content.
The content of D1 and D3 in the solution was represented by the proportion (% by area) of the peak area of each compound to the total peak area of HPLC analysis of the composition obtained after the decomposition test. Furthermore, the residual rate (% by mass) of the compound 1 was calculated by dividing the content after storage by the initial content using the absolute calibration method.
(§1) Measurement of the residual rate of the compound 1 and the content of the decomposition products in the following Examples 3 to 9 was performed under the following conditions: • Analyzer: HPLC-PDA system: CBM-20Avp system controller, SIC-20ADvp autosampler, LC-20ADvp feed pump, DGU-20A degasser, CTO-20Avp column oven, SPD-M10Avp photodiode array detector, manufactured by Shimadzu Corporation • Column: Kinetex® Biphenyl […] (50×4.6 mm), manufactured by Shimadzu Corporation
A compound 1 was metered, and Milli-Q water was added so that the compound 1 could be solubilized, thus obtaining an aqueous solution of the compound 1 (250 μM) so that the concentration of the compound 1 became 250 μM.
The aqueous solution of the compound 1 thus obtained (250 μM) was heated at 60° C., followed by measurement using the HPLC-PDA system.
The aqueous solution of the compound 1 obtained in Example 3 (250 μM) was heated under acid (0.1N HCl) conditions, followed by measurement of the decomposition products using the HPLC-PDA system. […] Addition of an acid decreased the production of D1 and promoted the production of D3.
The aqueous solution of the compound 1 obtained in Example 3 (250 μM) was heated under base (0.1N NaOH) conditions, followed by measurement of the decomposition products using the HPLC-PDA system. […] Addition of a base promoted the production of D1. Other peaks (0.11% by area) were observed.
The aqueous solution of the compound 1 obtained in Example 3 (250 μM) was stored under conditions of ordinary temperature and hydrogen peroxide (3 v/v %), followed by measurement of the decomposition products using the HPLC-PDA system.
The aqueous solution of the compound 1 obtained in Example 3 (250 μM) was irradiated with pseudo-sunlight (250 W/m^2, 2 hours), followed by measurement of the decomposition products using the HPLC-PDA system. […] Therefore, it was confirmed that the aqueous solution of the compound 1 was photostable.

[2] = Pharmacokinetic evaluation of hydrogelated liquid composition, subcutaneous administration to rats; type: in vivo, SD male rats; settings: 5 mg/kg
Method: A compound 1 (3.5 mg), Kolliphor (registered trademark) P188 (200 mg), Kolliphor (registered trademark) P407 (150 mg) and purified water (1.0 mL) were mixed using a vortex mixer to obtain a liquid composition. Then, the above liquid composition was stored at 4° C. overnight to obtain a hydrogel.
To evaluate the sustained-release ability of the hydrogelated liquid composition prepared in the above Example 11(a), the drug concentration in blood was measured over time after subcutaneous administration of the hydrogel or a compound 1 bulk powder to rats. Specifically, the hydrogel or the compound 1 bulk powder, at a dose of 5 mg/kg as an amount of the compound 1, was singly subcutaneously administered to SD male rats. After subcutaneous administration, blood was collected over time from the tail vein, and the blood was transferred into a micro test tube treated with heparin, and immediately cooled in ice. After cooling in ice, the blood was immediately centrifuged at 4° C. and 10,000 g for 10 minutes.
In Table 10, pharmacokinetic parameter was expressed as mean±standard error (n=3 to 6).

[3] = system: phospholipase A2; settings: known from Patent Document 1; cited from earlier work
[4] = Inhibition of decomposition of compound 1-containing liquid composition with antioxidant added (60° C., 48 hours); type: physicochemical; settings: compound 1 250 μM, Tween 80 1.0 v/v %, antioxidant 250 μM, 60° C. for 48 hours (FIG. 6)
Method: In this test, an additive (antioxidant) that traps reactive oxygen species (ROS) was added to investigate the usefulness in the aqueous solution of the compound 1 for inhibition of decomposition under thermal conditions. A compound 1, Tween 80 and an antioxidant was metered, and Milli-Q water was added so that the concentration of the compound 1 and Tween 80 became 250 μM and 1.0 v/v %, respectively. Subsequently, four antioxidants were added so that each of the concentration thereof became 250 μM to obtain a compound 1-containing liquid composition with an antioxidant added. The content of D1 after the composition was heated at 60° C. for 48 hours was evaluated.

[5] = Solution stability of compound 1-containing liquid composition with VC added (heating to 60° C.); type: physicochemical; settings: VC 250, 500 or 2,500 μM, compound 1 250 μM, Tween 80 1.0 v/v %
Method: as §1
Effects of the amount of VC added on the solution stability of the compound 1 were investigated. Preparation was performed in the same manner as for the compound 1-containing liquid composition in Example 8 except that the concentration of VC was 250, 500 or 2,500 μM. The decomposition of the compound 1 and the production of D1 at the time of addition were evaluated (mean±standard error, n=3). After heating to 60° C., and the residual rate of the compound 1 and the content of D1 were evaluated over time, and the results are shown in FIG. 7. The residual rate (% by mass) of the compound 1 in the solution and the content (% by area) of D1 were calculated by the same calculation method as in Examples 3 to 8.

[6] = clinical use as additive; cited from earlier work
[7] = Heat: 60° C., 48 h, —: Undetected
[8] = Oxidation: 3.0% H2O2, room temperature, 48 h

For `CCS(=O)(=O)Nc1ncc(C(F)(F)F)cc1NC(=O)C1CCCCC1` [Compound 1, N-(2-ethylsulfonylamino-5-trifluoromethyl-3-pyridyl)cyclohexanecarboxamide-monosodium salt-monohydrate], the “Content of D3 after the forced decomposition test” value (“Content of D3” below) ([1]; Acid: 0.1N HCl, 60° C., 48 h) was 16.18 % by area, the “Other peaks (other than D1 and D3), maximum” value ([1]; Acid: 0.1N HCl, 60° C., 48 h) was at most 1.36 % by area and the “Residual rate of the compound 1 after the forced decomposition test” value ([1]; Acid: 0.1N HCl, 60° C., 48 h) was 77.1 % by mass. The “Content of D1 after the forced decomposition test” value ([1]; Acid: 0.1N HCl, 60° C., 48 h, —: Undetected) was “below the detection limit”, the “Content of D1 after the forced decomposition test” value ([1]; Base: 0.1N NaOH, 60° C., 48 h) was 17.62 % by area and the “Content of D3” value ([1]; Base: 0.1N NaOH, 60° C., 48 h) was 0.50 % by area. For the same compound, the “Other peaks (other than D1 and D3)” value ([1]; Base: 0.1N NaOH, 60° C., 48 h) was 0.11 % by area, the “Residual rate of the compound 1 after the forced decomposition test” value ([1]; Base: 0.1N NaOH, 60° C., 48 h) was 77.3 % by mass and the “Residual rate of the compound 1 after the forced decomposition test” value ([1]; Heat: 250 μM aqueous solution, 60° C., 48 h) was 88.7 % by mass. For the same compound, the “Other peaks (other than D1 and D3)” value ([1]; Heat: 60° C., 48 h) was “No other peaks were detected”, the “Content of D1 after the forced decomposition test” value [1, 7] was 8.08 % by area and the “Content of D3” value [1, 7] was “below the detection limit”. The “Residual rate of the compound 1 after the forced decomposition test” value ([1]; Light: pseudo-sunlight 250 W/m^2, room temperature, 2 h) was 97.4 % by mass, the “Content of D1 after the forced decomposition test” value [1, 8] was 0.30 % by area and the “Residual rate of the compound 1 after the forced decomposition test” value [1, 8] was 75.9 % by mass. The “Content of D3” value ([1]; Oxidation: 3.0% H2O2, room temperature, 48 h, —: Undetected) was “below the detection limit”, the “Peaks other than D1 and D3, maximum” value ([1]; Oxidation: hydrogen peroxide 3 v/v %, ordinary temperature) was at most 1.79 % by area and the “Photostability of the aqueous solution (decomposition products after irradiation)” value ([1]; pseudo-sunlight 250 W/m^2, 2 hours) was “No decomposition product was detected; also recorded: photostable”. The “Concentration in plasma at 12 hours after administration” value [2] was “below the detection limit”.

For `CCS(=O)(=O)Nc1ncc(C(F)(F)F)cc1NC(=O)C1CCCCC1` [N-(2-ethylsulfonylamino-5-trifluoromethyl-3-pyridyl)cyclohexanecarboxamide], the “Inhibitory effect on phospholipase A2” value [3] is given as “has an inhibitory effect on phospholipase A2”.

With `O=C1O[C@H]([C@@H](O)CO)C(O)=C1O` [VC, L-ascorbic acid] the “Inhibition of decomposition of compound 1 / production of D1 by added antioxidant” value [4] was “remarkably inhibited the production of D1”, the “Residual rate of the compound 1 over time with VC added” value ([5]; 60° C. (FIG. 7A)) was “increased depending on the concentration of VC added” and the “Content of D1 over time with VC added” value ([5]; 60° C. (FIG. 7B)) was “decreased depending on the concentration of VC added”.

In the case of `N[C@@H](CS)C(=O)O` [cysteine, L-Cysteine], the “Inhibition of decomposition of compound 1 / production of D1 by added antioxidant” value [4] is given as “remarkably inhibited the production of D1” and the “Maximum dose during intravenous injection” value [6] is given as 8 mg.
